Data on one compound can be found in article PMC6158167 (Nature Communications, 2018).

In one assay the target is ShHTL7 T190F/C194F (Striga hermonthica, UniProt A0A0M3PNA2, C194F/T190F). The experiment in a line: ITC binding to ShHTL7 double mutation. The note with it: 3 mM KAR1 into 150 μM mutant. As for the experimental part: (§1) Supplementary Figure 8. Activity measurements of ShHTL7 mutants. (a-b), Binding analyses of the T190F/C194F double mutation (a) and L124F/T190F/C194F triple mutation (b) of ShHTL7 with KAR1 by ITC (shown in black). The ITC assays were performed by adding 3 mM KAR1 to 150 μM ShHTL7 mutants in the same manner as in Supplementary Figure 3. Results of titrating buffer to 150 μM ShHTL7 mutants are shown in red. The upper panel for each […]
Chain of ShHTL7 T190F/C194F (A0A0M3PNA2 whole entry T190F/C194F): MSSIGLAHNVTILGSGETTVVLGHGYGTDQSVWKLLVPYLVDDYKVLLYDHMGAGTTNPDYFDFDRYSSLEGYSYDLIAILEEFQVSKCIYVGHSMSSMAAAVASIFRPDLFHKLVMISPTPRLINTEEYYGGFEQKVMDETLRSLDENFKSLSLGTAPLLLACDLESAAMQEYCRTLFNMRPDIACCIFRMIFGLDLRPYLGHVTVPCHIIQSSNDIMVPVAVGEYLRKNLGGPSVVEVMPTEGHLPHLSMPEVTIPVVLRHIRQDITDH
(§2) injection (black squares). (c) YLG hydrolytic activity of ShHTL7 and its mutants. As described

The next assay deals with ShHTL4. The experiment in a line: ITC binding to ShHTL4. Also on record: species or system Striga hermonthica. The note with it: 3 mM KAR1 into 150 μM protein. As for the experimental part:
(§3) The binding assays were performed using a MicroCal iTC200 isothermal titration calorimeter (GE Healthcare). Prior to the ITC experiments, concentrated ShD14, ShHTL1, ShHTL4, and ShHTL7 were exchanged into a buffer consisting of 20 mM HEPES (pH 8.0) and 150 mM NaCl to remove dithiothreitol and were then adjusted to a final concentration of 150 μM. The sample cell was filled with protein solution (204 μL). Nineteen consecutive 2.0-μL aliquots of 3 mM KAR1 (3-methyl-2H-furo [2,3-c] pyran-2-one) were injected into a prepared protein solution at 150 s intervals at 20 °C. The first injection volume was 0.4 μL, and the observed thermal peak was excluded from the data analysis. A negative control was obtained by titrating 3 mM KAR1 into the buffer (20 mM HEPES, pH 8.0, 150 mM NaCl) in the same manner. Data fitting was performed in “one set of sites” mode, and KD values were calculated using Origin software provided by MicroCal.
(§4) Supplementary Figure 3. Binding analyses of ShHTLs and ShD14 with KAR1. The ITC
(§5) assays were performed by adding 3 mM KAR1 to 150 μM ShHTL1 (a), ShHTL4 (b), ShHTL7
(§6) (c), ShD14 (d) and AtHTL (e).
(§7) ShHTL1 and AtHTL were fitted using the MicroCal origin software with the “one binding site”
(§8) model. The ITC assays titrating KAR1 into ShHTL1 and AtHTL were repeated three times
(§9) independently (data not shown).

A further assay addresses ShHTL1 (Striga hermonthica, UniProt A0A0M4AV81). The experiment in a line: ITC binding to ShHTL1. The note with it: 3 mM KAR1 into 150 μM protein, 20 °C, means ± SD, n = 3, read-out: dissociation constant (KD) of KAR1 to ShHTL1.
The next assay deals with T1, ShHTL7 (Striga hermonthica, UniProt A0A0M3PNA2).
T1 sequence (A0A0M3PNA2 1-271): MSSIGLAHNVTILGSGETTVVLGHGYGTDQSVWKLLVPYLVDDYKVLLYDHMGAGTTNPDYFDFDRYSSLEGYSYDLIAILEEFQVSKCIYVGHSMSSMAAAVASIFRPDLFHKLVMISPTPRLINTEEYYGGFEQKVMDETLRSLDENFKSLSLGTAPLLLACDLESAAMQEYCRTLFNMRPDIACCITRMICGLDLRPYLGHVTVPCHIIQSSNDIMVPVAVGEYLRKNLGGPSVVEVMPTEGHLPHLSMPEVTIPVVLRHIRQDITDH
The experiment in a line: ITC binding to ShHTL7. The conditions noted are these: 3 mM KAR1 into 150 μM protein. The method, then:
as §3, §4, §5, §6, §7, §8, §9

The next assay has as its system ShD14. The assay is described as follows: ITC binding to ShD14. Also on record: species or system Striga hermonthica. The note with it: 3 mM KAR1 into 150 μM protein. The method, then: as §3, §4, §5, §6, §7, §8, §9
The next assay has as its system Striga. Also on record: method as in doi:10.1016/j.plantsci.2009.06.007, PMID 26228149. The note with it: cited from earlier work.
Another assay deals with T2, AtHTL (Arabidopsis thaliana, UniProt Q9SZU7).
T2 sequence (Q9SZU7 1-270): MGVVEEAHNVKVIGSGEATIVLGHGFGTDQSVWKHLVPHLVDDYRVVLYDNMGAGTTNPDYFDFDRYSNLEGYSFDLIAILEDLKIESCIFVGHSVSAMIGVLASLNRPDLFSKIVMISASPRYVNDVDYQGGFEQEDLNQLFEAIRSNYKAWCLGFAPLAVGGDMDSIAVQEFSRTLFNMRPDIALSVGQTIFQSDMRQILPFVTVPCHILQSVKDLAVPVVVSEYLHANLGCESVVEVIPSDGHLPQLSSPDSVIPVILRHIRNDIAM
The experiment in a line: ITC binding to AtHTL. The note with it: 3 mM KAR1 into 150 μM protein, 20 °C. The method, then:
as §3, §4, §5, §6, §7, §8, §9

The target in another assay is ShHTL7 L124F/T190F/C194F (Striga hermonthica, UniProt A0A0M3PNA2, C194F/L124F/T190F). The experiment in a line: ITC binding to ShHTL7 triple mutation. The note with it: 3 mM KAR1 into 150 μM mutant. The method, then: as §1, §2
Chain of ShHTL7 L124F/T190F/C194F (A0A0M3PNA2 whole entry L124F/T190F/C194F): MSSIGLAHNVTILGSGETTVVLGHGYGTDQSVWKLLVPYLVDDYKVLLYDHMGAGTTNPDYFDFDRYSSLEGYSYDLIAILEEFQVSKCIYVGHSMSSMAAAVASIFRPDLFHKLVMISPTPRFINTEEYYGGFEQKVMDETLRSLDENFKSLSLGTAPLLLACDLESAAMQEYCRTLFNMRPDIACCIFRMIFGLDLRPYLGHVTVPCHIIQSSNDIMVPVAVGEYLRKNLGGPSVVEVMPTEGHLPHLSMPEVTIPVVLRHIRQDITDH
The subject of assay [1] is ShHTL3–ShMAX2 interaction. The experiment in a line: Y2H assay ShHTL3-ShMAX2. The format is cell-based, Striga hermonthica. The conditions noted are these: 5 μM ligand. An excerpt:
Full-length sequences of ShD14, ShHTL1, ShHTL3, ShHTL4, ShHTL7, and AtHTL were cloned into the pGBKT7 vector as bait (Clontech), and the coding regions of ShMAX2 and AtMAX2 were cloned into the pGADT7 vector as prey (Clontech). MAX2 was supposed to be unstable without ASK1. Therefore, AtASK1 was cloned into the N terminus of ShMAX2 and AtMAX2 with a 16-residue linker for co-expression. The bait and prey plasmids were co-transformed into the yeast (Saccharomyces cerevisiae) strain Y2HGold (Clontech) by the lithium acetate-mediated method. The presence of both plasmids was confirmed by growth on SD/-Leu/-Trp (-LT) plates. […] The plates were incubated for 5 days at 30 °C.

A further assay has as its target AtHTL–AtMAX2 interaction (Arabidopsis thaliana, UniProt Q9SZU7). The note with it: pull-down, 50 μM ligand, western blotting. As for the experimental part:
and AtHTL were detected using an anti-GST antibody, as indicated by the black arrows. (b)
1/10, 1/20, 1/50, 1/100, 1/1000) of transformed yeast cells was plated on control medium (SD/-
Leu/-Trp; -LT) and selective medium (SD/-Leu/-Trp/-His/-Ade; -LTHA) in the absence or
(1 picture or pasted object on this page, not shown here)
(In western blotting, separated proteins are transferred to a membrane and probed.)

The next assay concerns the target ShHTL3. More on the design: method as in PMID 27507097. The conditions noted are these: ITC; read-out: KD of KAR1 to ShHTL3; cited from earlier work. For orientation: Isothermal titration calorimetry measures the heat released or taken up as one component is titrated into another.

Chain of ShHTL1 (A0A0M4AV81 entry or part of it): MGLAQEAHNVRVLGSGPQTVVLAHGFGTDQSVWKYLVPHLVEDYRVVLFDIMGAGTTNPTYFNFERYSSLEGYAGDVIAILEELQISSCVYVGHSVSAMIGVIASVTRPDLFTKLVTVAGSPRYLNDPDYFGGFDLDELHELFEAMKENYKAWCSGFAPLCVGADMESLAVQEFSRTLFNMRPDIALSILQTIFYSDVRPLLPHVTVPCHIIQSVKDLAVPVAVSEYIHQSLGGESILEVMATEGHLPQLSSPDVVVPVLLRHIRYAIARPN
Description for ShHTL1: Binding analyses of ShHTLs and ShD14 with KAR1. The ITC assays were performed by adding 3 mM KAR1 to 150 μM ShHTL1 (a), ShHTL4 (b), ShHTL7
ShHTL1 and AtHTL were fitted using the MicroCal origin software with the “one binding site” model.

Usually Kd stands for the equilibrium constant for the complex coming apart. In the case of `Cc1c2ccocc-2oc1=O` [KAR1, 3-methyl-2H-furo [2,3-c] pyran-2-one], the “KAR1 binding by ShHTL7 T190F/C194F” value on ShHTL7 T190F/C194F is given as “able to bind to KAR1 weakly”. The “KAR1 binding ability of ShHTL4” value in the assay with ShHTL4 is on record as “no significant KAR1 binding ability”. Besides, the figures for the Kd on ShHTL1, at AtHTL and at ShHTL3 were 77 ± 12 µM, 129 ± 17 µM and 78 ± 3 µM, respectively. In addition, the “KAR1 binding ability of ShHTL7” value at ShHTL7 was “no significant KAR1 binding ability”. Also, the “KAR1 binding ability of ShD14” value with ShD14 is “no significant KAR1 binding ability”. Further, in the assay on Striga, the “induction of germination of Striga” value was “fails to induce germination of Striga”. In addition, the “KAR1 binding by ShHTL7 L124F/T190F/C194F” value at ShHTL7 L124F/T190F/C194F is given as “able to bind to KAR1 weakly”. In [1], the “ligand-induced ShHTL3-ShMAX2 interaction” value is given as “failed to interact with ShMAX2 in the presence of KAR1”. Moreover, the “ligand effect on AtHTL-AtMAX2 interaction” value on AtHTL–AtMAX2 interaction is on record as “did not interact with AtMAX2 in a KAR1-dependent manner”.
